{"source": "patent US20120251495A1", "about": "“PTERIN BASED THERAPIES FOR INFLAMMATORY CONDITIONS” (priority 2008, published 2012)", "key": {"hepatitis B virus (HBV) [1]": {"test_system": "hepatitis B virus (HBV)", "test": "Liver HBV DNA by Southern blot hybridization in HBV transgenic mice", "assay_type": "in vivo", "text": "Animals. Homozygous adult female and male transgenic HBV mice were used (20.6±2.8 g). The mice were originally obtained from Dr. Frank Chisari (Scripps Research Institute, La Jolla, Calif.) (Guidotti L G, Matzke B, Schaller H & Chisari F V. High-level hepatitis B virus replication in transgenic mice. J Virol 1995; 69:6158-6169) and were subsequently raised in the Biosafety Level 3 (BL-3) area of the AAALAC-accredited USU Laboratory Animal Research Center (LARC). The animals were derived from founder 1.3.32 (Guidotti L G, Matzke B, Schaller H & Chisari F V. High-level hepatitis B virus replication in transgenic mice. J Virol 1995; 69:6158-6169). This study was conducted in accordance with the approval of the Institutional Animal Care and Use Committee of Utah State University.\nExperimental design. DCP was administered per os, once daily for 14 days to randomly assigned HBV transgenic mice at 23, 7.3, and 2.3 mg/(kg d). ADV was used as a positive control at 10 mg/(kg d) using the same treatment schedule and vehicle (0.4% CMC). On day 14, mice were euthanized to collect serum and liver samples to perform liver HBV DNA, liver core and serum HBe assays, serum cytokine/chemokine profiles, and IDO metabolite assays.\nLiver HBV DNA assays. Southern blot hybridization and quantitative PCR (qPCR) were performed on liver tissues (Morrey J D, Motter N E, Tam B, Lay M & Fairman J. Efficacy of cationic lipid-DNA complexes (CLDC) on hepatitis B virus in transgenic mice. Antiviral Res 2008; 79:71-79). For Southern blot hybridization, the ratio of the viral DNA bands to the transgene band was used to determine the concentration of viral DNA per host DNA. This calculation was based upon the knowledge that there were 1.3 copies of the transgene present per host cell with this line of transgenic mice. The transgene was used as an internal indicator to calculate the pg of HBV DNA per μg of homozygous cellular host DNA. For qPCR, the assay was run with a series of 10-fold dilutions of pooled liver DNA from HBV transgenic mice to obtain a standard curve. Mean C(t) values were obtained for duplicates of each sample. The mean C(t) values of each sample were used to obtain the log relative DNA values using a formula of the fit line of the standard curve."}, "hepatitis B virus (HBV) [2]": {"test_system": "hepatitis B virus (HBV)", "test": "Liver HBV DNA by quantitative PCR in HBV transgenic mice", "assay_type": "in vivo", "settings": "female HBV mice; 23.0 mg/(kg day), per os 14 days"}}}
{"smiles": "Nc1nc([O-])c2nccnc2n1.Nc1nc([O-])c2nccnc2n1.[Ca+2]", "note": "[DCP, dipterinyl calcium pentahydrate]", "values": [{"measurement": "Liver HBV DNA (Southern), Female levels (mean ± SEM)", "setting": "hepatitis B virus (HBV) [1]; 2.3 mg/(kg d)", "value": "12.7 ± 1.9", "unit": "pg/µg"}, {"measurement": "Liver HBV DNA (Southern), Female levels (mean ± SEM)", "setting": "hepatitis B virus (HBV) [1]; 7.3 mg/(kg d)", "value": "17.3 ± 3.5", "unit": "pg/µg"}, {"measurement": "Liver HBV DNA (Southern), Female levels (mean ± SEM)", "setting": "hepatitis B virus (HBV) [1]; 23.0 mg/(kg d)", "value": "10.6 ± 1.6", "unit": "pg/µg"}, {"measurement": "Liver HBV DNA (Southern), Male levels (mean ± SEM)", "setting": "hepatitis B virus (HBV) [1]; 2.3 mg/(kg d)", "value": "46.4 ± 10.8", "unit": "pg/µg"}, {"measurement": "Liver HBV DNA (Southern), Male levels (mean ± SEM)", "setting": "hepatitis B virus (HBV) [1]; 7.3 mg/(kg d)", "value": "50.4 ± 10.3", "unit": "pg/µg"}, {"measurement": "Liver HBV DNA (Southern), Male levels (mean ± SEM)", "setting": "hepatitis B virus (HBV) [1]; 23.0 mg/(kg d)", "value": "36.0 ± 10.6", "unit": "pg/µg"}, {"measurement": "Log HBV DNA (PCR) versus controls", "setting": "hepatitis B virus (HBV) [2]", "value": "significant treatment decreases"}]}
